Species: Rattus norvegicus
Assay: Open TG-GATES - Regimen: Single
Type: toxicity, organism-based, Sprague-Dawley
Design: regimen Single, gender Male, age 6 weeks
Details: in vivo, po, 100 mg/kg, route gavage, dose level High; for APTT / Bas / Eos / Fbg / Hb / Ht / Lym / MCH / MCHC / MCV / Mono / Neu / PT / Plat / RBC / Ret / WBC: tissue Blood; for KIDNEY_L / KIDNEY_R / KIDNEY_TOTAL: tissue Kidney; for LIVER: tissue Liver; for A/G / ALP / ALT / AST / BUN / CRE / Ca / Cl / DBIL / GLC / IP / K / LDH / Na / PL / RALB / TBIL / TC / TG / TP / gamma-GTP: tissue Plasma

Work on OCCOCCN1CCN(C(c2ccccc2)c2ccc(Cl)cc2)CC1 (configuration not stated) [HYDROXYZINE] yielded a TERMINAL_BW (3 h) of 192.6 g, an APTT (3 h) of 16.4 s and a Bas (3 h) of 0.2%. For the same compound, the Eos (3 h) was 0.8%, the Fbg (3 h) was 276.2 mg/dL and the Hb (3 h) was 12.4 g/dL. The Ht (3 h) was 38.5%, the Lym (3 h) was 79.6% and the MCH (3 h) was 21.5 pg. It also gave an MCHC (3 h) of 32.3%, an MCV (3 h) of 66.5 fL and a Mono (3 h) of 2.8%. It also gave a Neu (3 h) of 16%, a PT (3 h) of 16 s and a Plat (3 h) of 107.8 x10_4/uL. It also gave an RBC (3 h) of 579.6 x10_4/ul, a Ret (3 h) of 9.2% and a WBC (3 h) of 66.5 x10_2/uL. The KIDNEY_L (3 h) was 0.9 g, the KIDNEY_R (3 h) was 0.9 g and the KIDNEY_TOTAL (3 h) was 1.8 g. The LIVER (3 h) was 8.5 g, the A/G (3 h) was 0.9 and the ALP (3 h) was 1704.8 IU/L. The ALT (3 h) was 45.4 IU/L, the AST (3 h) was 78 IU/L and the BUN (3 h) was 10.2 mg/dL. The CRE (3 h) was 0.2 mg/dL, the Ca (3 h) was 10.7 mg/dL and the Cl (3 h) was 105.8 meq/L. For the same compound, the DBIL (3 h) was 0.008 mg/dL, the GLC (3 h) was 167.2 mg/dL and the IP (3 h) was 9.5 mg/dL. The K (3 h) was 4.4 meq/L, the LDH (3 h) was 107.6 IU/L and the Na (3 h) was 142.4 meq/L. It also gave a PL (3 h) of 132.4 mg/dL, an RALB (3 h) of 2.5 g/dL and a TBIL (3 h) of 0.048 mg/dL. It also gave a TC (3 h) of 65.8 mg/dL, a TG (3 h) of 40 mg/dL and a TP (3 h) of 5.4 g/dL. For the same compound, the gamma-GTP (3 h) was 1 IU/L, the TERMINAL_BW (6 h) was 190.6 g and the APTT (6 h) was 16.5 s. For the same compound, the Bas (6 h) was 0%, the Eos (6 h) was 0.8% and the Fbg (6 h) was 260.2 mg/dL. For the same compound, the Hb (6 h) was 12.8 g/dL, the Ht (6 h) was 39.9% and the Lym (6 h) was 80.4%. The MCH (6 h) was 21.2 pg, the MCHC (6 h) was 32.1% and the MCV (6 h) was 65.8 fL. For the same compound, the Mono (6 h) was 2.6%, the Neu (6 h) was 15.6% and the PT (6 h) was 16 s. It also gave a Plat (6 h) of 118.2 x10_4/uL, an RBC (6 h) of 606.4 x10_4/ul and a Ret (6 h) of 8.5%. The WBC (6 h) was 87.3 x10_2/uL, the KIDNEY_L (6 h) was 0.9 g and the KIDNEY_R (6 h) was 0.9 g. For the same compound, the KIDNEY_TOTAL (6 h) was 1.8 g, the LIVER (6 h) was 7.9 g and the A/G (6 h) was 0.8. The ALP (6 h) was 1674.2 IU/L, the ALT (6 h) was 39.8 IU/L and the AST (6 h) was 78.2 IU/L. The BUN (6 h) was 8.6 mg/dL, the CRE (6 h) was 0.2 mg/dL and the Ca (6 h) was 10.7 mg/dL. It also gave a Cl (6 h) of 106.8 meq/L, a DBIL (6 h) of 0.01 mg/dL and a GLC (6 h) of 180.8 mg/dL. For the same compound, the IP (6 h) was 9.7 mg/dL, the K (6 h) was 4.2 meq/L and the LDH (6 h) was 64.2 IU/L. For the same compound, the Na (6 h) was 141.8 meq/L, the PL (6 h) was 121.8 mg/dL and the RALB (6 h) was 2.4 g/dL. It also gave a TBIL (6 h) of 0.062 mg/dL, a TC (6 h) of 63.8 mg/dL and a TG (6 h) of 28 mg/dL. It also gave a TP (6 h) of 5.3 g/dL, a gamma-GTP (6 h) of 1 IU/L and a TERMINAL_BW (9 h) of 190.3 g. It also gave an APTT (9 h) of 15.9 s, a Bas (9 h) of 0.2% and an Eos (9 h) of 0.8%. The Fbg (9 h) was 288.6 mg/dL, the Hb (9 h) was 13 g/dL and the Ht (9 h) was 40.5%. The Lym (9 h) was 78.8%, the MCH (9 h) was 21.5 pg and the MCHC (9 h) was 32%. It also gave an MCV (9 h) of 67.2 fL, a Mono (9 h) of 2.8% and a Neu (9 h) of 16.6%. It also gave a PT (9 h) of 15.6 s, a Plat (9 h) of 116.3 x10_4/uL and an RBC (9 h) of 603.4 x10_4/ul. The Ret (9 h) was 8.6%, the WBC (9 h) was 75.7 x10_2/uL and the KIDNEY_L (9 h) was 0.9 g. It also gave a KIDNEY_R (9 h) of 0.9 g, a KIDNEY_TOTAL (9 h) of 1.8 g and an LIVER (9 h) of 7.7 g. The A/G (9 h) was 0.9, the ALP (9 h) was 1671.6 IU/L and the ALT (9 h) was 36.2 IU/L. The AST (9 h) was 76.6 IU/L, the BUN (9 h) was 8.2 mg/dL and the CRE (9 h) was 0.2 mg/dL. It also gave a Ca (9 h) of 10.6 mg/dL, a Cl (9 h) of 106.6 meq/L and a DBIL (9 h) of 0.016 mg/dL. It also gave a GLC (9 h) of 182.4 mg/dL, an IP (9 h) of 10.6 mg/dL and a K (9 h) of 4.3 meq/L. It also gave an LDH (9 h) of 63 IU/L, a Na (9 h) of 142 meq/L and a PL (9 h) of 124.4 mg/dL. For the same compound, the RALB (9 h) was 2.5 g/dL, the TBIL (9 h) was 0.066 mg/dL and the TC (9 h) was 64.6 mg/dL. The TG (9 h) was 34.2 mg/dL, the TP (9 h) was 5.4 g/dL and the gamma-GTP (9 h) was 1 IU/L. For the same compound, the TERMINAL_BW (24 h) was 198.7 g, the APTT (24 h) was 16.8 s and the Bas (24 h) was 0%. It also gave an Eos (24 h) of 0.8%, a Fbg (24 h) of 253.6 mg/dL and a Hb (24 h) of 13.3 g/dL. For the same compound, the Ht (24 h) was 40.4%, the Lym (24 h) was 78.4% and the MCH (24 h) was 22.2 pg. The MCHC (24 h) was 32.9%, the MCV (24 h) was 67.4 fL and the Mono (24 h) was 3.6%. For the same compound, the Neu (24 h) was 16.4%, the PT (24 h) was 16.8 s and the Plat (24 h) was 123.7 x10_4/uL. The RBC (24 h) was 599.6 x10_4/ul, the Ret (24 h) was 7.7% and the WBC (24 h) was 74.7 x10_2/uL. It also gave a KIDNEY_L (24 h) of 0.9 g, a KIDNEY_R (24 h) of 0.9 g and a KIDNEY_TOTAL (24 h) of 1.9 g. For the same compound, the LIVER (24 h) was 9 g, the A/G (24 h) was 0.8 and the ALP (24 h) was 1880 IU/L. For the same compound, the ALT (24 h) was 45.6 IU/L, the AST (24 h) was 75.8 IU/L and the BUN (24 h) was 15.6 mg/dL. For the same compound, the CRE (24 h) was 0.2 mg/dL, the Ca (24 h) was 11.1 mg/dL and the Cl (24 h) was 107 meq/L. The DBIL (24 h) was 0.016 mg/dL, the GLC (24 h) was 181.6 mg/dL and the IP (24 h) was 7.7 mg/dL. It also gave a K (24 h) of 4.2 meq/L, an LDH (24 h) of 76 IU/L and a Na (24 h) of 141.4 meq/L. For the same compound, the PL (24 h) was 135 mg/dL, the RALB (24 h) was 2.6 g/dL and the TBIL (24 h) was 0.06 mg/dL. It also gave a TC (24 h) of 75.4 mg/dL, a TG (24 h) of 52.2 mg/dL and a TP (24 h) of 5.6 g/dL. For the same compound, the gamma-GTP (24 h) was 0.6 IU/L.

— ChEMBL document CHEMBL3885861, “Open TG-GATES”
